In ChEMBL document CHEMBL5113400, “Design, synthesis, and biological evaluation of trizole-based heteroaromatic derivatives as Bcr-Abl kinase inhibitors” (Eur J Med Chem, 2022):

What was measured:
[1] = molecular target: Dual specificity protein kinase CLK1 (Homo sapiens) (UniProt P49759); assay: Inhibition of recombinant human CLK1 at 10 uM for 10 mins followed by substrate addition in presence of ATP and measured after 100 mins by ADP-Glo kinase assay; settings: time 110.0 min
[2] = molecular target: T1, Tyrosine-protein kinase ITK/TSK (Homo sapiens) (UniProt Q08881); assay: Inhibition of recombinant human ITK at 10 uM for 10 mins followed by substrate addition in presence of ATP and measured after 60 mins by HTRF assay; settings: time 70.0 min
T1 sequence (whole entry): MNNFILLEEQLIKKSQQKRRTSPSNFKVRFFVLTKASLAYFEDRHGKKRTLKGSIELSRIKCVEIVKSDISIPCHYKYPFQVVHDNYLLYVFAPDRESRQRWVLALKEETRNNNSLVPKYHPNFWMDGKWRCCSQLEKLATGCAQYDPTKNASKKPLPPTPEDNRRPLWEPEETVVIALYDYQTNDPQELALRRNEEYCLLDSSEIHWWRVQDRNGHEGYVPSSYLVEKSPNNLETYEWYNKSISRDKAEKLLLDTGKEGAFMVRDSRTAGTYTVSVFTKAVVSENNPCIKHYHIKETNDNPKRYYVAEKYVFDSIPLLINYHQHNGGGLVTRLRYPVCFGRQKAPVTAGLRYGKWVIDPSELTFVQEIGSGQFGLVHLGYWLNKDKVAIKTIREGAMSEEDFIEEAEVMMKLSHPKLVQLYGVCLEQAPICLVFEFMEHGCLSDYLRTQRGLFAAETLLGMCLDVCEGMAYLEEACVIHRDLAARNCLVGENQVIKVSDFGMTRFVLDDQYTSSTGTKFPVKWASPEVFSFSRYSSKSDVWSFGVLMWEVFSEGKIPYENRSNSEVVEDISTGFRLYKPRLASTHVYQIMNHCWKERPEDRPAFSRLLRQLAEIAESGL

Bcr/Abl fusion protein = Bcr/Abl fusion protein (Homo sapiens, UniProt P00519); assay: Inhibition of wild type Bcr-Abl (unknown origin) incubated for 1 hr in presence of ATP by ADP-Glo kinase assay; assay type: protein assay
[3] = molecular target: Vascular endothelial growth factor receptor 2 (Homo sapiens) (UniProt P35968); assay: Inhibition of recombinant human KDR at 10 uM for 10 mins followed by substrate addition in presence of ATP and measured after 60 mins by HTRF assay; settings: time 70.0 min
[4] = molecular target: Vascular endothelial growth factor receptor 2 (Homo sapiens) (UniProt P35968); assay: Inhibition of recombinant human KDR at 10 uM for 10 mins followed by substrate addition in presence of ATP and measured after 100 mins by ADP-Glo kinase assay; settings: time 110.0 min
[5] = molecular target: BDNF/NT-3 growth factors receptor (Homo sapiens) (UniProt Q16620); assay: Inhibition of recombinant human TRKB at 10 uM for 10 mins followed by substrate addition in presence of ATP and measured after 100 mins by ADP-Glo kinase assay; settings: time 110.0 min
BaF3 [6] = assay: Antiproliferative activity against mouse BaF3 cells expressing Bcr-Abl T315I mutant assessed as inhibition of cell growth at 30 uM incubated for 72 hrs by CellTiter-Glo luminescent assay; assay type: functional
K562/Adr = assay: Antiproliferative activity against human Adriamycin-resistant K562/Adr cells assessed as inhibition of cell growth incubated for 48 hrs by MTT assay; assay type: functional, cell-based
[7] = molecular target: Dual specificity protein kinase CLK1 (Homo sapiens) (UniProt P49759); assay: Inhibition of recombinant human CLK1 at 10 uM for 10 mins followed by substrate addition in presence of ATP and measured after 60 mins by HTRF assay; settings: time 70.0 min
K562 [8] = assay: Induction of apoptosis in human K562 cells assessed as late apoptotic cells at 5 uM incubated for 48 hrs by Annexin V-FITC/PI staining based flow cytometry analysis (Rvb= 14.66%); assay type: functional
K562 [9] = assay: Induction of apoptosis in human K562 cells assessed as early apoptotic cells at 5 uM incubated for 48 hrs by Annexin V-FITC/PI staining based flow cytometry analysis (Rvb= 4.35%); assay type: functional
EA.hy 926 = assay: Cytotoxicity against human EA.hy 926 cells assessed as inhibition of cell growth upto 100 uM incubated for 48 hrs by MTT assay; assay type: toxicity, cell-based; settings: ea.hy 926, 48 h
BaF3 [10] = assay: Antiproliferative activity against mouse BaF3 cells expressing Bcr-Abl T315I mutant assessed as inhibition of cell growth incubated for 72 hrs by CellTiter-Glo luminescent assay; assay type: functional, cell-based; settings: BaF3, 72 h
K562 [11] = assay: Induction of apoptosis in human K562 cells assessed as late apoptotic cells at 10 uM incubated for 48 hrs by Annexin V-FITC/PI staining based flow cytometry analysis (Rvb= 14.66%); assay type: functional
BaF3 [12] = assay: Antiproliferative activity against mouse BaF3 cells expressing wild type Bcr-Abl assessed as inhibition of cell growth incubated for 72 hrs by CellTiter-Glo luminescent assay; assay type: functional, cell-based; settings: BaF3, 72 h
K562 [13] = assay: Induction of apoptosis in human K562 cells assessed as early apoptotic cells at 1 uM incubated for 48 hrs by Annexin V-FITC/PI staining based flow cytometry analysis (Rvb= 4.35%); assay type: functional
K562 [14] = assay: Induction of apoptosis in human K562 cells assessed as viable cells at 5 uM incubated for 48 hrs by Annexin V-FITC/PI staining based flow cytometry analysis (Rvb=80.89%); assay type: functional; settings: read-out: Activity
[15] = molecular target: Dual specificity tyrosine-phosphorylation-regulated kinase 1B (Homo sapiens) (UniProt Q9Y463); assay: Inhibition of recombinant human DYRK1B at 10 uM for 10 mins followed by substrate addition in presence of ATP and measured after 60 mins by HTRF assay; settings: time 70.0 min
HEK293 = assay: Cytotoxicity against human HEK293 cells assessed as inhibition of cell growth upto 100 uM incubated for 48 hrs by MTT assay; assay type: toxicity, cell-based; settings: hek293, 48 h
[16] = molecular target: Tyrosine-protein kinase receptor UFO (Homo sapiens) (UniProt P30530); assay: Inhibition of recombinant human AXL at 10 uM for 10 mins followed by substrate addition in presence of ATP and measured after 60 mins by HTRF assay; settings: time 70.0 min
BaF3 [17] = assay: Antiproliferative activity against mouse BaF3 cells assessed as inhibition of cell growth incubated for 72 hrs by CellTiter-Glo luminescent assay; assay type: functional, cell-based; settings: BaF3, 72 h
K562 [18] = assay: Induction of apoptosis in human K562 cells assessed as necrotic cells at 5 uM incubated for 48 hrs by Annexin V-FITC/PI staining based flow cytometry analysis (Rvb= 0.09%); assay type: functional
K562 [19] = assay: Induction of apoptosis in human K562 cells assessed as necrotic cells at 1 uM incubated for 48 hrs by Annexin V-FITC/PI staining based flow cytometry analysis (Rvb= 0.09%); assay type: functional

Chain of Vascular endothelial growth factor receptor 2 (Homo sapiens) (P35968 whole entry): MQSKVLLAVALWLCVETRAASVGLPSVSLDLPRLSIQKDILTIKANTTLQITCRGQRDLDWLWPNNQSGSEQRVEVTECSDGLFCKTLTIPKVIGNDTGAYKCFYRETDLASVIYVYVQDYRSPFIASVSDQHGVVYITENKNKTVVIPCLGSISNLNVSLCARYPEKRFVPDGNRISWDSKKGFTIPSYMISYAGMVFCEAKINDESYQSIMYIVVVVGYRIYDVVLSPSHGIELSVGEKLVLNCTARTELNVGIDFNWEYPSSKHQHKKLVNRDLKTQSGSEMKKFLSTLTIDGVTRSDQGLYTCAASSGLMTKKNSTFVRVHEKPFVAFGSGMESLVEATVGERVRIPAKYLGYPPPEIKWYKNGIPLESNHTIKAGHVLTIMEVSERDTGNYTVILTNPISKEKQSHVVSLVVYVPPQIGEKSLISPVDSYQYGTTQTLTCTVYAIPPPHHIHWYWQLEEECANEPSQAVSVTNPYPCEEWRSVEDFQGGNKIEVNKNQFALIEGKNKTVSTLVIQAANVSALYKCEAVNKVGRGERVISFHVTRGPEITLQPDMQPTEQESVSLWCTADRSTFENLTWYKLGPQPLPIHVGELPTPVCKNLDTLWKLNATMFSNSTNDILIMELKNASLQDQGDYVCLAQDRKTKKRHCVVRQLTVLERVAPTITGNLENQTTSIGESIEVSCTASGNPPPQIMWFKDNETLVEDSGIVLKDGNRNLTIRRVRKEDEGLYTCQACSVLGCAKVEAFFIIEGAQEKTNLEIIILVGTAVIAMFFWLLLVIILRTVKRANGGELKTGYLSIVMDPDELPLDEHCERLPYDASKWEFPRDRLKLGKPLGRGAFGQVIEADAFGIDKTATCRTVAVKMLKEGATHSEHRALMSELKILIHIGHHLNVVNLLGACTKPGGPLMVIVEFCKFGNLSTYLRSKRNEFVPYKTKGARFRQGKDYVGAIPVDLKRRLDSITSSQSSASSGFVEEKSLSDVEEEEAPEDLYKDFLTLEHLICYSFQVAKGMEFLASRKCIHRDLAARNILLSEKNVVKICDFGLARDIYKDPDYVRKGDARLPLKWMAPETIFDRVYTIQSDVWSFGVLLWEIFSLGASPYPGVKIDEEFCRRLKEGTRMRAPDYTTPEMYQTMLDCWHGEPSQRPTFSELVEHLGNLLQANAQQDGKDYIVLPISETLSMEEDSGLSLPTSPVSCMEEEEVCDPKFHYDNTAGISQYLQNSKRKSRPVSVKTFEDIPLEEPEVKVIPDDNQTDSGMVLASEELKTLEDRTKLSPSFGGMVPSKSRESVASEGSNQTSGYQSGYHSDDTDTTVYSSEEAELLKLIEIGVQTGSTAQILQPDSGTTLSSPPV
Chain of Dual specificity protein kinase CLK1 (Homo sapiens) (P49759 whole entry, looked up): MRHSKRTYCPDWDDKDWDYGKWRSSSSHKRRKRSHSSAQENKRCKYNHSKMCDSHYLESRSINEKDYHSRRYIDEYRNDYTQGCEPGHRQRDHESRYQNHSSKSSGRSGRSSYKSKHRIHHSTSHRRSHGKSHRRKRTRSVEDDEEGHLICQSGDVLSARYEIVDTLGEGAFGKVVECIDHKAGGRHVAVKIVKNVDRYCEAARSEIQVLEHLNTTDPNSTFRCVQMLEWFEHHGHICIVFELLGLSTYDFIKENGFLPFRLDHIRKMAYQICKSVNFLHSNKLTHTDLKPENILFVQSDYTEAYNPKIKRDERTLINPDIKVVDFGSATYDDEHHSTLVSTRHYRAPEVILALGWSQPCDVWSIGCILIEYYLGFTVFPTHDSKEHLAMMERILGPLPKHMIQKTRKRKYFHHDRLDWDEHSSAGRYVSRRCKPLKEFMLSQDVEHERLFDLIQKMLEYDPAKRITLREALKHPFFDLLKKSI
Chain of Bcr/Abl fusion protein (P00519 whole entry, the tested form may be a part): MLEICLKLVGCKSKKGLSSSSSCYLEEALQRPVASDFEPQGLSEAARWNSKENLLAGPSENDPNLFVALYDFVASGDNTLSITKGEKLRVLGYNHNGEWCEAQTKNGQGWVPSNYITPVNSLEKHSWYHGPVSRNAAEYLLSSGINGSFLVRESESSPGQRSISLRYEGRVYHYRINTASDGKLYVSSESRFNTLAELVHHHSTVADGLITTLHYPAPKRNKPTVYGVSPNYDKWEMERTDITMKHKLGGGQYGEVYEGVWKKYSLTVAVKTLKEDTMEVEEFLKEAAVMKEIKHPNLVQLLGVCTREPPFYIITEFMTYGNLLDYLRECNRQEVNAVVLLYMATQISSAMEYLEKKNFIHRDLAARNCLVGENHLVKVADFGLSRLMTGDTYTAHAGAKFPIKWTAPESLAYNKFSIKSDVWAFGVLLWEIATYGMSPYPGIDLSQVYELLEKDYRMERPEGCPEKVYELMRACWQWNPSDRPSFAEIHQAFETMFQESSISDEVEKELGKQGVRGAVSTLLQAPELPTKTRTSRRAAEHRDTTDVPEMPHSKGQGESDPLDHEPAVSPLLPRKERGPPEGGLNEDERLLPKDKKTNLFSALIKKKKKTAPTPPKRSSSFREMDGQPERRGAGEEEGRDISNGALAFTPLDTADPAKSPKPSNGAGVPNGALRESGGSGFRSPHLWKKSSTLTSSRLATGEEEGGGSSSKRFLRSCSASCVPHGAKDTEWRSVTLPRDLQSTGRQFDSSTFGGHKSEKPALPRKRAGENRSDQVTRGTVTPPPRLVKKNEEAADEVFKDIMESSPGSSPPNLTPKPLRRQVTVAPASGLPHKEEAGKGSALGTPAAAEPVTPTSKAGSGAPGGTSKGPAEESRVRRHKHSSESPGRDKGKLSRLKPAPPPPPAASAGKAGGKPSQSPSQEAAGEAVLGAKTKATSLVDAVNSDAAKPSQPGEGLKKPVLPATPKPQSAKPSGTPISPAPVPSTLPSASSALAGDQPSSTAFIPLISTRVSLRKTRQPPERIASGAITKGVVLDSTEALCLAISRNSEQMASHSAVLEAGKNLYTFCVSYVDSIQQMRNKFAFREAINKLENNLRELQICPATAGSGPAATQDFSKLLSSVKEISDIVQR
Chain of Bcr/Abl fusion protein (P11274 whole entry, further chain, the tested form may be a part): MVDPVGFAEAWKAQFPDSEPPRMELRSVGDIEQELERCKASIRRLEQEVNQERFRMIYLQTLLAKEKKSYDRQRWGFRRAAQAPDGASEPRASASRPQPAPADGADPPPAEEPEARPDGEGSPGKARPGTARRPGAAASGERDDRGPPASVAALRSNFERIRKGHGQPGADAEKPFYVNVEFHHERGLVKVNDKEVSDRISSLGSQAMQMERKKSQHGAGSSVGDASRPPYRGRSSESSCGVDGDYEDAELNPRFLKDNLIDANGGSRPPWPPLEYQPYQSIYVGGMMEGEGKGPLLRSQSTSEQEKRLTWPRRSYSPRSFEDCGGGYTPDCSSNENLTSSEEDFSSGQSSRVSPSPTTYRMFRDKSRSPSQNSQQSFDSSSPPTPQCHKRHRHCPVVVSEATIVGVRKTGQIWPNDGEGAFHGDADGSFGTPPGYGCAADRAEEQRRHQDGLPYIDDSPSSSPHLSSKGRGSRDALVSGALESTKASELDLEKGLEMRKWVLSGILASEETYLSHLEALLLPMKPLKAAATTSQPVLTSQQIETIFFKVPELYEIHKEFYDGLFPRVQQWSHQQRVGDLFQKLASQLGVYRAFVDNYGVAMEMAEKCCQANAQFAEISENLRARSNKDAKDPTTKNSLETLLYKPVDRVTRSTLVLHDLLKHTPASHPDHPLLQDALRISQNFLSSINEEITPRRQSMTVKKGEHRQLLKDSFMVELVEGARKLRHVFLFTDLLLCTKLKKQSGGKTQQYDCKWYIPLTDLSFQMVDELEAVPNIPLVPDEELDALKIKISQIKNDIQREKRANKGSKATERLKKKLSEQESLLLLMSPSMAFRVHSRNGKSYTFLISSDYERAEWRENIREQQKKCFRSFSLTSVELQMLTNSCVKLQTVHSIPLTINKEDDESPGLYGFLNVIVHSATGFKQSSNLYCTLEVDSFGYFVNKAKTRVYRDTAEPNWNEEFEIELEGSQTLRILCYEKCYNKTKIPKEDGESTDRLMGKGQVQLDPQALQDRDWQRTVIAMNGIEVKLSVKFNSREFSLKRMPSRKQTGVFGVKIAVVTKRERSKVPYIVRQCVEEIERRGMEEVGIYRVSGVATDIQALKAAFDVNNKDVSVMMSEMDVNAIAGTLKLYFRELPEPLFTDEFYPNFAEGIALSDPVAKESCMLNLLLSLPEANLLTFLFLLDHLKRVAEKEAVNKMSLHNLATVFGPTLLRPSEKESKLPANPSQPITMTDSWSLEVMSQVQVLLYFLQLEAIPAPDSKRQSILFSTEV
Chain of Dual specificity tyrosine-phosphorylation-regulated kinase 1B (Homo sapiens) (Q9Y463 whole entry, looked up): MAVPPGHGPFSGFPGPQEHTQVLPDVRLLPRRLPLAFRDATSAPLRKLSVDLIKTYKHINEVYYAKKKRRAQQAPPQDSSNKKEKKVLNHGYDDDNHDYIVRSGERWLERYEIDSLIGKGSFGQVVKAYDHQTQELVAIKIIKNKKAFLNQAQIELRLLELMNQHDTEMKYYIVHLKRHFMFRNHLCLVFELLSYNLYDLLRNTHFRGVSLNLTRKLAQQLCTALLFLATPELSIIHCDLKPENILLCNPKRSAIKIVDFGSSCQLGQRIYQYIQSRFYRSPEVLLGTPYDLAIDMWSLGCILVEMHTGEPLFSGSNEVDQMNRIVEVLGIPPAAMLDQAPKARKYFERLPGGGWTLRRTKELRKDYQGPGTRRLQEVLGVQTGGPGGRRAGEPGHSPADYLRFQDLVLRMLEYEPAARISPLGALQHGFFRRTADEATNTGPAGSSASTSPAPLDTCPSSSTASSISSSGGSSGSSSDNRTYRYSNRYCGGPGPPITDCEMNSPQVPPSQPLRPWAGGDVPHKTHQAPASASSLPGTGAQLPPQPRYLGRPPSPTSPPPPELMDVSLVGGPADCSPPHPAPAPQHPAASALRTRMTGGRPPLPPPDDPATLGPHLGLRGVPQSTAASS

inhibition [1]: 44.2%
inhibition [2]: 41.1%
IC50 (Bcr/Abl fusion protein): 0.6 nM
inhibition [3]: 47.7%
inhibition [4]: 47.7%
inhibition [5]: 54.3%
IC50 (K562/Adr): 2440 nM
inhibition [7]: 44.2%
IC50 (BaF3 [10]): 672 nM
IC50 (BaF3 [12]): 130 nM
inhibition [15]: 68.4%
inhibition [16]: 56.4%
IC50 (BaF3 [17]): > 20 µM
Structure (SMILES): O=C(Nc1nc2ccc(-c3cn([C@@H]4CN[C@H](C(=O)Nc5ccc(Cl)cc5Cl)C4)nn3)nc2s1)C1CC1
inhibition at 30 µM (BaF3 [6]): 87.6%
Activity (K562 [8]): 29.63%
Activity (K562 [9]): 4.85%
Activity (EA.hy 926): Non-Toxic
Activity (K562 [11]): 43.12%
Activity (K562 [13]): 3.59%
viability at 5 µM (K562 [14]): 66.5%
Activity (HEK293): Non-Toxic
Activity (K562 [18]): 0.03%
Activity (K562 [19]): 0.06%
